The results in this text go back to patent publication US9738642B2, “Triazolopyridine ether derivatives and their use in neurological and pyschiatric disorders” (BRISTOL-MYERS SQUIBB COMPANY, priority 2013, dated 2017).

This test has as its target T1, human mGluR2 (Homo sapiens, UniProt Q14416).
T1 construct: expressed in transfected cells; host or cells: HEK293 clonal line
The test is described as follows: mGluR2 cAMP assay. In kind it is cell-based. The note with it: clonally expressed human mGluR2 in HEK293, 1 μM forskolin, 1 μM LY-341495, 30 min, CISBIO cAMP kit. The method, then: On the day of the assay, media was removed, cells washed with PBS, cells harvested and pelleted by centrifugation. Cell pellets were resuspended in stimulation buffer without forskolin and counted. […] A standard curve was created using a top concentration of cAMP of 1 μM in the stimulation buffer, 1:3 dilutions over 14 points in the absence of cells. […] In house software converted the fluorescence value ratios to units of cAMP concentration, which is then used to calculate % inhibition for each test compound. MGluR2 cAMP Assay Materials and Methods. […] Buffer without forskolin was used as a negative control. Solutions of D2 and cryptate detection reagents from the CISBIO dynamic cAMP kit (62AM4PEJ) were diluted 1:40 in lysis buffer. Lysis buffer consisted of 50 mM Phosphate Buffer pH 7.0, 800 mM Potassium Fluoride, 0.2% BSA, and 1.0% Triton. Assay reaction was terminated by addition of detection reagents in lysis buffer. One hour later, plates were read on a PE Viewlux. Data was extracted, and concentration response curves generated by fitting the data to a standard 4 parameter logistic equation from which EC50 values were determined.

Where [1] appears, read: read-out: EC50 (nM), activity in mGluR2 cAMP assay.

Molecules are shown by their SMILES. Structures can show the parent of a compound that is named as a salt. Where two headings read alike, the source gives them in different places.

T1 sequence (Q14416 19-872): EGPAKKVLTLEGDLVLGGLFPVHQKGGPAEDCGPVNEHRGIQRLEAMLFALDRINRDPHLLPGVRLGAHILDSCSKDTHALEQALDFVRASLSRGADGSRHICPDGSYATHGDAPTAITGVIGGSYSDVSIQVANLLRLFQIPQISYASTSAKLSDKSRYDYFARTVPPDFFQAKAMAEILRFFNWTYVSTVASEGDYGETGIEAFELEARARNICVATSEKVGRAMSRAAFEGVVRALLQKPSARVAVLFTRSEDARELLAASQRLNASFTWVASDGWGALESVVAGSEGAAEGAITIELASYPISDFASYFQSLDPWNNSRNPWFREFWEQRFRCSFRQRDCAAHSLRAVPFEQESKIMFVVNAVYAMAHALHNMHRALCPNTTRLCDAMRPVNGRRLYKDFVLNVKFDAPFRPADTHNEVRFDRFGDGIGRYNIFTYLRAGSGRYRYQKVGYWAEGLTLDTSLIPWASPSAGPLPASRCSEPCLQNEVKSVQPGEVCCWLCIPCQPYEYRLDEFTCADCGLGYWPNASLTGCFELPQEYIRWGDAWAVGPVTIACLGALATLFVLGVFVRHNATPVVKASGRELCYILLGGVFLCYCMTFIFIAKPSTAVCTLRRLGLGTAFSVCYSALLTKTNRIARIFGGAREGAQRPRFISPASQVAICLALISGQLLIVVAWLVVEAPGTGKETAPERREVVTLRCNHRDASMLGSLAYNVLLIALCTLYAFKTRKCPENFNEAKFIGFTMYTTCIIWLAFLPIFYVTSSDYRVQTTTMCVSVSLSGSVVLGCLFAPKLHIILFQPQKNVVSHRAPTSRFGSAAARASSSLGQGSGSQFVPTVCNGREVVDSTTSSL

As a reminder, the EC50 is the concentration at which the effect is half-maximal. Take `CC(COc1ccn2c(CC3CC3)nnc2c1C(F)(F)F)c1ccc(F)cc1` (racemic) [Example 4, 3-(Cyclopropylmethyl)-7-(2-(4-fluorophenyl)propoxy)-8-(trifluoromethyl)-[1,2,4]triazolo[4,3-a]pyridine, TFA salt]: under setting [1], the EC50 turned out to be 10 nM.
On the same count and under the same terms, as for `CC(COc1ccn2c(CC3CC3)nnc2c1C(F)(F)F)c1c(F)cccc1Cl` (racemic) [Example 5, 7-(2-(2-Chloro-6-fluorophenyl)propoxy)-3-(cyclopropylmethyl)-8-(trifluoromethyl)-[1,2,4]triazolo[4,3-a]pyridine], the figure is 1 nM; as for `CC(C#N)(COc1ccn2c(CC3CC3)nnc2c1C(F)(F)F)c1ccc(F)cc1` (racemic) [Example 12, 3-(3-(Cyclopropylmethyl)-8-(trifluoromethyl)-[1,2,4]triazolo[4,3-a]pyridin-7-yloxy)-2-(4-fluorophenyl)-2-methylpropanenitrile, TFA salt], 130 nM; as for `COC(C)(COc1ccn2c(CC3CC3)nnc2c1C(F)(F)F)c1ccc(F)cc1` (racemic) [Example 21, 3-(Cyclopropylmethyl)-7-(2-(4-fluorophenyl)-2-methoxypropoxy)-8-(trifluoromethyl)-[1,2,4]triazolo[4,3-a]pyridine], 31 nM.
The same measure, in the same setting: the same measure for `FC(F)(F)c1c(OC[C@H]2C[C@@H]2c2ccc(Cl)cc2)ccn2c(CC3CC3)nnc12` (racemic) [Example 31, (±)-7-(((1S,2S)-2-(4-chlorophenyl)cyclopropyl)methoxy)-3-(cyclopropylmethyl)-8-(trifluoromethyl)-[1,2,4]triazolo[4,3-a]pyridine]: 1.3 nM.
The same measure, in the same setting: as for `COc1cccc(F)c1[C@H]1C[C@@H]1COc1ccn2c(CC3CC3)nnc2c1C(F)(F)F` (racemic) [Example 32, (±)-3-(Cyclopropylmethyl)-7-(((1S,2S)-2-(2-fluoro-6-methoxyphenyl)cyclopropyl)methoxy)-8-(trifluoromethyl)-[1,2,4]triazolo[4,3-a]pyridine], the figure is 0.3 nM.
With `COc1ccccc1[C@H]1C[C@@H]1COc1ccn2c(CC3CC3)nnc2c1C(F)(F)F` (racemic) [Example 37, (±)-3-(Cyclopropylmethyl)-7-(((1S,2S)-2-(2-methoxyphenyl)cyclopropyl)methoxy)-8-(trifluoromethyl)-[1,2,4]triazolo[4,3-a]pyridine], under setting [1], the EC50 was 0.2 nM.
Still for that read-out and setting: as for `FC(F)(F)Oc1ccccc1[C@H]1C[C@@H]1COc1ccn2c(CC3CC3)nnc2c1C(F)(F)F` (racemic) [Example 38, (±)-3-(Cyclopropylmethyl)-7-(((1S,2S)-2-(2-(trifluoromethoxy)phenyl)cyclopropyl)methoxy)-8-(trifluoromethyl)-[1,2,4]triazolo[4,3-a]pyridine], the figure is 1.4 nM.
Still for that read-out and setting: the same measure for `Fc1ccccc1[C@H]1C[C@@H]1COc1ccn2c(CC3CC3)nnc2c1C(F)(F)F` (racemic) [Example 43, (±)-3-(Cyclopropylmethyl)-7-(((1S,2S)-2-(2-fluorophenyl)cyclopropyl)methoxy)-8-(trifluoromethyl)-[1,2,4]triazolo[4,3-a]pyridine]: 1.4 nM.
With `Fc1ccc(F)c([C@H]2C[C@@H]2COc2ccn3c(CC4CC4)nnc3c2C(F)(F)F)c1` (racemic) [Example 44, (±)-3-(Cyclopropylmethyl)-7-(((1S,2S)-2-(2,5-difluorophenyl)cyclopropyl)methoxy)-8-(trifluoromethyl)-[1,2,4]triazolo[4,3-a]pyridine], the EC50 under setting [1] stood at 1.9 nM.
On the same count and under the same terms, the same measure for `COc1ccc([C@H]2C[C@@H]2COc2ccn3c(CC4CC4)nnc3c2C(F)(F)F)cc1` (racemic) [Example 45, (±)-3-(Cyclopropylmethyl)-7-(((1S,2S)-2-(4-methoxyphenyl)cyclopropyl)methoxy)-8-(trifluoromethyl)-[1,2,4]triazolo[4,3-a]pyridine]: 1.3 nM; for `COc1c(F)ccc(F)c1[C@H]1C[C@@H]1COc1ccn2c(CC3CC3)nnc2c1C(F)(F)F` (racemic) [Example 47, (±)-3-(Cyclopropylmethyl)-7-(((1S,2S)-2-(3,6-difluoro-2-methoxyphenyl)cyclopropyl)methoxy)-8-(trifluoromethyl)-[1,2,4]triazolo[4,3-a]pyridine]: 0.8 nM.
For `Fc1cccc(Cl)c1[C@H]1C[C@@H]1COc1ccn2c(CC3CC3)nnc2c1C(F)(F)F` (racemic) [Example 48, (±)-7-(((1S,2S)-2-(2-chloro-6-fluorophenyl)cyclopropyl)methoxy)-3-(cyclopropylmethyl)-8-(trifluoromethyl)-[1,2,4]triazolo[4,3-a]pyridine], the EC50 under setting [1] came to 0.5 nM.
The same measure, in the same setting: the same measure for `COc1cc(F)ccc1[C@H]1C[C@@H]1COc1ccn2c(CC3CC3)nnc2c1C(F)(F)F` (racemic) [Example 49, (±)-3-(Cyclopropylmethyl)-7-(((1S,2S)-2-(4-fluoro-2-methoxyphenyl)cyclopropyl)methoxy)-8-(trifluoromethyl)-[1,2,4]triazolo[4,3-a]pyridine]: 0.4 nM.
Take `Fc1ccc([C@H]2C[C@@H]2COc2ccn3c(CC4CC4)nnc3c2C(F)(F)F)cc1` (racemic) [Example 77, (±)-3-(Cyclopropylmethyl)-7-(((1S,2S)-2-(4-fluorophenyl)cyclopropyl)methoxy)-8-(trifluoromethyl)-[1,2,4]triazolo[4,3-a]pyridine]: a half-maximal response (EC50 (nM), activity in mGluR2 cAMP assay) (EC50) required 1.7 nM.
As for `FC(COc1ccn2c(CC3CC3)nnc2c1C(F)(F)F)c1ccccc1` (racemic) [Example 84, 3-(Cyclopropylmethyl)-7-(2-fluoro-2-phenylethoxy)-8-(trifluoromethyl)-[1,2,4]triazolo[4,3-a]pyridine], under setting [1], the EC50 was 5.8 nM.
On to `FC(F)(F)c1c(OCc2ccccc2)ccn2c(CC3CC3)nnc12` (racemic) [Example 85, 7-(Benzyloxy)-3-(cyclopropylmethyl)-8-(trifluoromethyl)-[1,2,4]triazolo[4,3-a]pyridine], for which the EC50 under setting [1] worked out at 25 nM.
As for `CO[C@]1(c2ccc(F)cc2)CC[C@H](Oc2ccn3c(C4CC4(F)F)nnc3c2C(F)(F)F)CC1` (mixture of isomers) [Example 86, (±)-3-(2,2-Difluorocyclopropyl)-7-((1s,4s)-4-(4-fluorophenyl)-4-methoxycyclohexyloxy)-8-(trifluoromethyl)-[1,2,4]triazolo[4,3-a]pyridine], under setting [1], the EC50 was 6.9 nM.
For the compound `CO[C@]1(c2ccc(F)cc2)CC[C@H](Oc2ccn3c(C4CC4(C)C)nnc3c2C(F)(F)F)CC1` (mixture of isomers) [Example 94, 3-(2,2-Dimethylcyclopropyl)-7-((1s,4s)-4-(4-fluorophenyl)-4-methoxycyclohexyloxy)-8-(trifluoromethyl)-[1,2,4]triazolo[4,3-a]pyridine], the EC50 under setting [1] was determined as 12 nM.
Same read-out and setting: as for `Fc1ccc([C@H]2C[C@H](Oc3ccn4c(C5CC5(F)F)nnc4c3C(F)(F)F)C2)cc1` (mixture of isomers) [Example 98, (±)-3-(2,2-Difluorocyclopropyl)-7-((1r,3r)-3-(4-fluorophenyl)cyclobutoxy)-8-(trifluoromethyl)-[1,2,4]triazolo[4,3-a]pyridine], the figure is 5.1 nM; as for `CO[C@]1(c2ccc(F)cc2)CC[C@H](Oc2ccn3c([C@@H]4C[C@H]4F)nnc3c2C(F)(F)F)CC1` (relative stereo) [Example 89, (±)-rel-3-((1S,2R)-2-Fluorocyclopropyl)-7-((1s,4s)-4-(4-fluorophenyl)-4-methoxycyclohexyloxy)-8-(trifluoromethyl)-[1,2,4]triazolo[4,3-a]pyridine], 41 nM; as for `C[C@@H](COc1ccn2c(CC3CC3)nnc2c1C(F)(F)F)c1c(F)cccc1Cl` (single isomer, unassigned) [Example 9], 0.8 nM.
Turning to `C[C@H](COc1ccn2c(CC3CC3)nnc2c1C(F)(F)F)c1c(F)cccc1Cl` (single isomer, unassigned) [Example 10], the 50% effective concentration (EC50) under setting [1] worked out at 0.8 nM.
Same read-out and setting: as for `C[C@@](C#N)(COc1ccn2c(CC3CC3)nnc2c1C(F)(F)F)c1ccc(F)cc1` (single isomer, unassigned) [Example 14], the figure is 230 nM.
Still for that read-out and setting: as for `C[C@](C#N)(COc1ccn2c(CC3CC3)nnc2c1C(F)(F)F)c1ccc(F)cc1` (single isomer, unassigned) [Example 15], the figure is 80 nM.
The same measure, in the same setting: the same measure for `CO[C@@](C)(COc1ccn2c(CC3CC3)nnc2c1C(F)(F)F)c1ccc(F)cc1` (single isomer, unassigned) [Example 24]: 36 nM.
For `CO[C@](C)(COc1ccn2c(CC3CC3)nnc2c1C(F)(F)F)c1ccc(F)cc1` (single isomer, unassigned) [Example 25], the EC50 under setting [1] came out at 25 nM.
Still for that read-out and setting: as for `COc1cccc(F)c1[C@H]1C[C@@H]1COc1ccn2c(CC3CC3)nnc2c1C(F)(F)F` (single isomer, unassigned) [Example 35], the figure is 0.2 nM.
Turning to `COc1cccc(F)c1[C@@H]1C[C@H]1COc1ccn2c(CC3CC3)nnc2c1C(F)(F)F` (single isomer, unassigned) [Example 36], the EC50 under setting [1] stood at 0.2 nM.
As for `COc1ccccc1[C@H]1C[C@@H]1COc1ccn2c(CC3CC3)nnc2c1C(F)(F)F` (single isomer, unassigned) [Example 39], the half-maximal effective concentration (EC50) under setting [1] was determined as 0.6 nM.
The same measure, in the same setting: the same measure for `COc1ccccc1[C@@H]1C[C@H]1COc1ccn2c(CC3CC3)nnc2c1C(F)(F)F` (single isomer, unassigned) [Example 40]: 1.4 nM.
